Data published in patent publication US20040156869A1, “2-substituted quinazolin-4-ylamine analogues” (Neurogen Corporation, priority 2002, published 2004).

Molecular target: human capsaicin receptor (VR1) (Homo sapiens, UniProt Q8NER1)
Assay: Capsaicin receptor binding assay ([3H]RTX competition, VR1-transfected HEK293 membranes)

human capsaicin receptor (VR1), sequence (Q8NER1 whole entry): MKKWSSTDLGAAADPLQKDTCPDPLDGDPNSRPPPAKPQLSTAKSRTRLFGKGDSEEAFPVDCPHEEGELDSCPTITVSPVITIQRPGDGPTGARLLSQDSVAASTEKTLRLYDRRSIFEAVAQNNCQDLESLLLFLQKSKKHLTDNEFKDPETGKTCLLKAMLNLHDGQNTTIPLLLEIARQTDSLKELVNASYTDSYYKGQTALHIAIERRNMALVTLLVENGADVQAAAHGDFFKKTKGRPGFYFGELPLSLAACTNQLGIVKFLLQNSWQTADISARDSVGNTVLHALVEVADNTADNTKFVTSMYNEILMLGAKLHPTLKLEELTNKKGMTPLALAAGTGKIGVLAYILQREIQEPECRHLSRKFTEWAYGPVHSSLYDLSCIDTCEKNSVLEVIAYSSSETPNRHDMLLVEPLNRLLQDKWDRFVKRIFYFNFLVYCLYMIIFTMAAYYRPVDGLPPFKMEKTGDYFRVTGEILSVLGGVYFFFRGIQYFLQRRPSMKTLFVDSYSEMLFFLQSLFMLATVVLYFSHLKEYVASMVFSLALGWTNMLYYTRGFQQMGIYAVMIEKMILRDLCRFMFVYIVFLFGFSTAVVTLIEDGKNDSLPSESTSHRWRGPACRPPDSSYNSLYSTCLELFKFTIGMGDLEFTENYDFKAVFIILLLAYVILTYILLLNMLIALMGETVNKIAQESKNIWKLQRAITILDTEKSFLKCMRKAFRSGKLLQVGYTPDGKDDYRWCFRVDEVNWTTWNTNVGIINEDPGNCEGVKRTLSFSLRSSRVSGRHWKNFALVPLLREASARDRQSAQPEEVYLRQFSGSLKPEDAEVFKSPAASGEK

| Ki [nM] | SMILES |
| --- | --- |
| < 1000 | COCCc1nc(Nc2ccc(C(F)(F)F)cc2)c2ccc(-c3ncccc3Cl)nc2n1 [Compound 85, [7-(3-Chloro-pyridin-2-yl)-2-(2-methoxy-ethyl)-pyrido[2,3-d]pyrimidin-4-yl]-(4-trifluoromethyl-phenyl)-amine] |
| < 1000 | FC(F)(F)c1ccc(Nc2nc(COC3CCOCC3)nc3cc(-c4ncccc4C(F)(F)F)ccc23)cc1 [Compound 86, [2-(Tetrahydro-pyran-4-yloxymethyl)-7-(3-trifluoromethyl-pyridin-2-yl)-quinazolin-4-yl]-(4-trifluoromethyl-phenyl)-amine] |
| < 1000 | CN(C)CCOCc1nc(Nc2ccc(C(F)(F)F)cc2)c2ccc(-c3ncccc3C(F)(F)F)cc2n1 [Compound 87, [2-(2-Dimethylamino-ethoxymethyl)-7-(3-trifluoromethyl-pyridin-2-yl)-quinazolin-4-yl]-(4-trifluoromethyl-phenyl)-amine] |
| < 1000 | COCc1nc(Nc2ccc(C(F)(F)F)cc2)c2ccc(-c3ncccc3C)nc2n1 [Compound 88, [2-Methoxymethyl-7-(3-methyl-pyridin-2-yl)-pyrido[2,3-d]pyrimidin-4-yl]-(4-trifluoromethyl-phenyl)-amine] |
| < 1000 | CN(C)CCCOCc1nc(Nc2ccc(C(F)(F)F)cc2)c2ccc(-c3ncccc3C(F)(F)F)cc2n1 [Compound 89, [2-(3-Dimethylamino-propoxymethyl)-7-(3-trifluoromethyl-pyridin-2-yl)-quinazolin-4-yl]-(4-trifluoromethyl-phenyl)-amine] |
| < 1000 | CCOCc1nc(Nc2ccc(C(F)(F)F)cc2)c2ccc(-c3ncccc3C)cc2n1 [Compound 90, [2-Ethoxymethyl-7-(3-methyl-pyridin-2-yl)-quinazolin-4-yl]-(4-trifluoromethyl-phenyl)-amine] |
| < 1000 | Cc1cccnc1-c1ccc2c(Nc3ccc(C(F)(F)F)cc3)nc(COC(C)C)nc2c1 [Compound 91, [2-Isopropoxymethyl-7-(3-methyl-pyridin-2-yl)-quinazolin-4-yl]-(4-trifluoromethyl-phenyl)-amine] |
| < 1000 | Cc1cccnc1-c1ccc2c(Nc3ccc(C(F)(F)F)cc3)nc(COC3CCOCC3)nc2c1 [Compound 92, [7-(3-Methyl-pyridin-2-yl)-2-(tetrahydro-pyran-4-yloxymethyl)-quinazolin-4-yl]-(4-trifluoromethyl-phenyl)-amine] |
| < 1000 | CCC(C)c1ccc(Nc2nc(COC)nc3nc(-c4ncccc4C(F)(F)F)ccc23)cc1 (stereo not shown) [Compound 93, (4-sec-Butyl-phenyl)-[2-methoxymethyl-7-(3-trifluoromethyl-pyridin-2-yl)-pyrido[2,3-d]pyrimidin-4-yl]-amine] |
| < 1000 | COCc1nc(Nc2ccc(C(C)C(F)(F)F)cc2)c2ccc(-c3ncccc3C(F)(F)F)nc2n1 (stereo not shown) [Compound 94, [2-Methoxymethyl-7-(3-trifluoromethyl-pyridin-2-yl)-pyrido[2,3-d]pyrimidin-4-yl]-[4-(2,2,2-trifluoro-1-methyl-ethyl)-phenyl]-amine] |
| < 1000 | COCc1nc(Nc2ccc(C(C)(C)C)cc2)c2ccc(-c3ncccc3C)nc2n1 [Compound 95, (4-tert-Butyl-phenyl)-[2-methoxymethyl-7-(3-methyl-pyridin-2-yl)-pyrido[2,3-d]pyrimidin-4-yl]-amine] |
| < 1000 | COCc1nc(Nc2ccc(C(C)C)cc2)c2ccc(-c3ncccc3C)nc2n1 [Compound 96, (4-Isopropyl-phenyl)-[2-methoxymethyl-7-(3-methyl-pyridin-2-yl)-pyrido[2,3-d]pyrimidin-4-yl]-amine] |
| < 1000 | CCC(C)c1ccc(Nc2nc(COC)nc3nc(-c4ncccc4C)ccc23)cc1 (stereo not shown) [Compound 97, (4-sec-Butyl-phenyl)-[2-methoxymethyl-7-(3-methyl-pyridin-2-yl)-pyrido[2,3-d]pyrimidin-4-yl]-amine] |
| < 1000 | COCc1nc(Nc2ccc(C(C)(C)C#N)cc2)c2ccc(-c3ncccc3C)nc2n1 [Compound 98, 2-{4-[2-Methoxymethyl-7-(3-methyl-pyridin-2-yl)-pyrido[2,3-d]pyrimidin-4-ylamino]-phenyl}-2-methyl-propionitrile] |
| < 1000 | CCOC(=O)c1nc(Nc2ccc(C(F)(F)F)cc2)c2ccc(-c3ncccc3C(F)(F)F)cc2n1 [Compound 99, 4-(4-Trifluoromethyl-phenylamino)-7-(3-trifluoromethyl-pyridin-2-yl)-quinazoline-2-carboxylic acid ethyl ester] |
| < 1000 | O=C(O)c1nc(Nc2ccc(C(F)(F)F)cc2)c2ccc(-c3ncccc3C(F)(F)F)cc2n1 [Compound 100, 4-(4-Trifluoromethyl-phenylamino)-7-(3-trifluoromethyl-pyridin-2-yl)-quinazoline-2-carboxylic acid] |
| < 1000 | CC(C)c1ccc(Nc2nc(COC3CCOCC3)nc3cc(-c4ncccc4C(F)(F)F)ccc23)cc1 [Compound 101, (4-Isopropyl-phenyl)-[2-(tetrahydro-pyran-4-yloxymethyl)-7-(3-trifluoromethyl-pyridin-2-yl)-quinazolin-4-yl]-amine] |

| Ki [nM] | SMILES |
| --- | --- |
| < 1000 | FC(F)(F)c1ccc(Nc2nc(COC3CCOCC3)nc3cc(-c4ncccc4Cl)ccc23)cc1 [Compound 102, [7-(3-Chloro-pyridin-2-yl)-2-(tetrahydro-pyran-4-yloxymethyl)-quinazolin-4-yl]-(4-trifluoromethyl-phenyl)-amine] |
| < 1000 | CC(C)c1ccc(Nc2nc(COC3CCOCC3)nc3cc(-c4ncccc4Cl)ccc23)cc1 [Compound 103, [7-(3-Chloro-pyridin-2-yl)-2-(tetrahydro-pyran-4-yloxymethyl)-quinazolin-4-yl]-(4-isopropyl-phenyl)-amine] |
| < 1000 | CCOCc1nc(Nc2ccc(C(C)C)cc2)c2ccc(-c3ncccc3C)cc2n1 [Compound 104, [2-Ethoxymethyl-7-(3-methyl-pyridin-2-yl)-quinazolin-4-yl]-(4-isopropyl-phenyl)-amine] |
| < 1000 | Cc1cccnc1-c1ccc2c(Nc3ccc(C(C)C)cc3)nc(COC(C)C)nc2c1 [Compound 105, [2-Isopropoxymethyl-7-(3-methyl-pyridin-2-yl)-quinazolin-4-yl]-(4-isopropyl-phenyl)-amine] |
| < 1000 | Cc1cccnc1-c1ccc2c(Nc3ccc(C(C)C)cc3)nc(COC3CCOCC3)nc2c1 [Compound 106, (4-Isopropyl-phenyl)-[7-(3-methyl-pyridin-2-yl)-2-(tetrahydro-pyran-4-yloxymethyl)-quinazolin-4-yl]-amine] |
| < 1000 | COCc1nc(Nc2ccc(C(C)(C)C)cc2)c2ccc(-c3ncccc3C(F)(F)F)nc2n1 [Compound 107, (4-tert-Butyl-phenyl)-[2-methoxymethyl-7-(3-trifluoromethyl-pyridin-2-yl)-pyrido[2,3-d]pyrimidin-4-yl]-amine] |
| < 1000 | COCc1nc(Nc2ccc(C(C)C)cc2)c2ccc(-c3ncccc3C(F)(F)F)nc2n1 [Compound 108, (4-Isopropyl-phenyl)-[2-methoxymethyl-7-(3-trifluoromethyl-pyridin-2-yl)-pyrido[2,3-d]pyrimidin-4-yl]-amine] |
| < 1000 | COCc1nc(Nc2ccc(C(F)(F)F)cc2)c2ccc(-c3ncccc3C(F)(F)F)nc2n1 [Compound 109, [2-Methoxymethyl-7-(3-trifluoromethyl-pyridin-2-yl)-pyrido[2,3-d]pyrimidin-4-yl]-(4-trifluoromethyl-phenyl)-amine] |
| < 1000 | COCc1nc(Nc2ccc(C3CCCC3)cc2)c2ccc(-c3ncccc3C(F)(F)F)nc2n1 [Compound 110, (4-Cyclopentyl-phenyl)-[2-methoxymethyl-7-(3-trifluoromethyl-pyridin-2-yl)-pyrido[2,3-d]pyrimidin-4-yl]-amine] |
| < 1000 | COCc1nc(Nc2ccc(S(C)(=O)=O)cc2)c2ccc(-c3ncccc3C(F)(F)F)nc2n1 [Compound 112, (4-Methanesulfonyl-phenyl)-[2-methoxymethyl-7-(3-trifluoromethyl-pyridin-2-yl)-pyrido[2,3-d]pyrimidin-4-yl]-amine] |
| < 1000 | COCc1nc(Nc2ccc(S(=O)(=O)C(F)(F)F)cc2)c2ccc(-c3ncccc3C(F)(F)F)nc2n1 [Compound 113, [2-Methoxymethyl-7-(3-trifluoromethyl-pyridin-2-yl)-pyrido[2,3-d]pyrimidin-4-yl]-(4-trifluoromethanesulfonyl-phenyl)-amine] |
| < 1000 | COCc1nc(Nc2ccc(S(=O)(=O)N3CCOCC3)cc2)c2ccc(-c3ncccc3C(F)(F)F)nc2n1 [Compound 114, [2-Methoxymethyl-7-(3-trifluoromethyl-pyridin-2-yl)-pyrido[2,3-d]pyrimidin-4-yl]-[4-(morpholine-4-sulfonyl)-phenyl]-amine] |
| < 1000 | CCN(CC)CCCOCc1nc(Nc2ccc(C(F)(F)F)cc2)c2ccc(-c3ncccc3C(F)(F)F)cc2n1 [Compound 115, [2-(3-Diethylamino-propoxymethyl)-7-(3-trifluoromethyl-pyridin-2-yl)-quinazolin-4-yl]-(4-trifluoromethyl-phenyl)-amine] |
| < 1000 | CN(C)CCCOCc1nc(Nc2ccc(C(C)(C)C)cc2)c2ccc(-c3ncccc3C(F)(F)F)cc2n1 [Compound 116, (4-tert-Butyl-phenyl)-[2-(3-dimethylamino-propoxymethyl)-7-(3-trifluoromethyl-pyridin-2-yl)-quinazolin-4-yl]-amine] |
| < 1000 | CCN(CC)CCCOCc1nc(Nc2ccc(C(C)(C)C)cc2)c2ccc(-c3ncccc3C(F)(F)F)cc2n1 [Compound 117, (4-tert-Butyl-phenyl)-[2-(3-diethylamino-propoxymethyl)-7-(3-trifluoromethyl-pyridin-2-yl)-quinazolin-4-yl]-amine] |
| < 1000 | COCc1nc(Nc2ccc(C3CC3)cc2)c2ccc(-c3ncccc3C(F)(F)F)cc2n1 [Compound 118, (4-Cyclopropyl-phenyl)-[2-methoxymethyl-7-(3-trifluoromethyl-pyridin-2-yl)-quinazolin-4-yl]-amine] |

| SMILES | Ki [nM] |
| --- | --- |
| CN(C)CCCCOCc1nc(Nc2ccc(C(C)(C)C)cc2)c2ccc(-c3ncccc3C(F)(F)F)cc2n1 [Compound 111, (4-tert-Butyl-phenyl)-[2-(4-dimethylamino-butoxymethyl)-7-(3-trifluoromethyl-pyridin-2-yl)-quinazolin-4-yl]-amine] | < 1000 |
